In patent US8497256B2, “Formulations and uses of 2-hydroxy-5-phenylazobenzoic acid derivatives for the treatment of males” (Salix Pharmaceuticals, Ltd, priority 2010, dated 2013):
Where a name gives a salt, the structure may show the parent alone. Read-outs that look alike come from different tables or passages of the source. Marks after values point to notes of the source that are not given here.

Legend:
clinical [1] = conditions: human, in vivo, po, 3.3 g, Median Tmax
[2] = Food effect on pharmacokinetics, single 3.3 g dose of GIAZO; conditions: single dose 3.3 g GIAZO; for Change (reduction) of AUC0-∞ under fed conditions / Reduction of mean Cmax under fed conditions: high-fat meal vs fasted; for Tmax: human, plasma, po, 3.3 g, Median Tmax
clinical [3] = experiment: clinical
Text: Before further description and in order that the invention may be more readily understood, certain terms are first defined and collected here for convenience. Common pharmacologic term used herein refer are as follows: Tmax (time to maximum concentration); Cmax (observed maximum concentration); kel (slope of terminal linear portion of concentration/time curve); T1/2 (half-life of balsalazide calculated as: 0.693/Kel); AUC(last) (area under the curve to last quantifiable concentration as measured by the trapezoidal rule); and AUC(inf) (the AUC value extrapolated to infinity calculated as: AUC(inf)=AUC(last)+C(t)last/Kel where C(t) last is the last measurable concentration).

CYP1A2 [4] = target: T1, CYP1A2 (Homo sapiens, UniProt P05177); conditions: microsomes
T1 sequence (P05177 1-516): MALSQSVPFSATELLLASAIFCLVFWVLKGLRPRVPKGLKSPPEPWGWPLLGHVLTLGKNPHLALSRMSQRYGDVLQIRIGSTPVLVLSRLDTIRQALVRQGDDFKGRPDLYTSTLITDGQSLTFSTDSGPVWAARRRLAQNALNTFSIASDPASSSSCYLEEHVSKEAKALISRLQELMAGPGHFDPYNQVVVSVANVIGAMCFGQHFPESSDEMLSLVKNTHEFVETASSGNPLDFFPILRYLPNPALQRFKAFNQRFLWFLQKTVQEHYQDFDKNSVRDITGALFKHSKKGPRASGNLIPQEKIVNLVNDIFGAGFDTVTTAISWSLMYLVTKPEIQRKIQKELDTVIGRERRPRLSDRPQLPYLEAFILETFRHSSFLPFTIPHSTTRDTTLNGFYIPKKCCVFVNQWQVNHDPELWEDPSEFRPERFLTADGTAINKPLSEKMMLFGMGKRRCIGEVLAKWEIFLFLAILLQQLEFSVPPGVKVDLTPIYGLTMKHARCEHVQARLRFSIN

CYP2D6 [5] = target: T2, CYP2D6 (Homo sapiens, UniProt P10635); conditions: microsomes
[6] = human, in vivo, po, 3.3 g
CYP2C9 [7] = target: T3, CYP2C9 (Homo sapiens, UniProt P11712); conditions: microsomes
human plasma proteins [8] = system: human plasma proteins
CYP2C19 [9] = target: T4, CYP2C19 (Homo sapiens, UniProt P33261); conditions: microsomes
human lymphocyte = experiment: Human lymphocyte chromosomal aberration test; assay type: cell-based; conditions: in vitro
Text: (§1) For a 50 kg person of average height this dose represents 2.5 times the recommended human dose on a body surface area basis. Balsalazide disodium was not genotoxic in the following in vitro or in vivo tests: Ames test, human lymphocyte chromosomal aberration test, and mouse lymphoma cell (L5178Y/TK+/−) forward mutation test, or mouse micronucleus test. However, it was genotoxic in the in vitro Chinese hamster lung cell (CH V79/HGPRT) forward mutation test.
(§2) The compound 4-aminobenzoyl-β-alanine, a metabolite of balsalazide disodium, was not genotoxic in the Ames test and the mouse lymphoma cell (L5178Y/TK+/−) forward mutation test but was positive in the human lymphocyte chromosomal aberration test. N-acetyl-4-aminobenzoyl-β-alanine, a conjugated metabolite of balsalazide disodium, was not genotoxic in Ames test, the mouse lymphoma cell (L5178Y/TK+/−) forward mutation test, or the human lymphocyte chromosomal aberration test.

Mouse micronucleus test = conditions: in vivo
Text: as §1

Ames test = assay type: cell-based; conditions: in vitro
Text: as §1, §2

[10] = Solubility of balsalazide disodium; assay type: physicochemical
Text: It is a stable, odorless, orange to yellow, microcrystalline powder. […] Balsalazide disodium has the chemical name (E)-5-[[-4-[[(2-carboxyethyl) amino]carbonyl]phenyl]azo]-2-hydroxybenzoic acid, disodium salt, dihydrate (Molecular Weight: 437.32; Molecular Formula: C17H13N3O6Na2.2H2O).
Each GIAZO tablet contains 1.1 g of balsalazide disodium, film-coated for oral delivery. Balsalazide disodium is insoluble in acid, but soluble at a pH of at least 4.5. […] The sodium content of each tablet is approximately 126 mg.
Mesalamine is 5-aminosaliacylic acid and appears to act topically.

[11] = system: mouse lymphoma cell (L5178Y/TK+/−); experiment: Mouse lymphoma cell forward mutation test; assay type: cell-based; conditions: in vitro
Text: as §1, §2

[12] = Reproduction / fertility studies in rats; assay type: in vivo, rat; conditions: oral doses up to 2 g/kg/day
Text: (§3) There are, however, no adequate and well-controlled studies in pregnant women. Because animal reproduction studies are not always predictive of human response, this drug should be used during pregnancy only if clearly needed.
as §2

[13] = 24-month rat carcinogenicity study; assay type: in vivo, rat (Sprague Dawley); conditions: 24 months, oral (dietary), doses up to 2 g/kg/day
Text: as §1

[14] = system: Chinese hamster lung cell (CH V79/HGPRT); assay type: cell-based
Text: as §1

[15] = Reproduction studies in rabbits; assay type: in vivo, rabbit; conditions: oral doses up to 2 g/kg/day
Text: as §3

CYP3A4/5 [16] = conditions: microsomes
human plasma proteins [17] = experiment: Plasma protein binding
[18] = cited from earlier work
CYP3A4/5 [19] = experiment: CYP inhibition in human liver microsomes
CYP2C19 [20] = target: T4, CYP2C19; experiment: CYP inhibition in human liver microsomes
CYP2C9 [21] = target: T3, CYP2C9; experiment: CYP inhibition in human liver microsomes
CYP2D6 [22] = target: T2, CYP2D6; experiment: CYP inhibition in human liver microsomes
CYP1A2 [23] = target: T1, CYP1A2; experiment: CYP inhibition in human liver microsomes
[24] = human, in vivo, Terminal half-life
[25] = repeated dose (Q12) 3.3 g as GIAZO, N = 18
[26] = single dose 3.3 g as GIAZO, N = 18

T2 sequence (P10635 whole entry): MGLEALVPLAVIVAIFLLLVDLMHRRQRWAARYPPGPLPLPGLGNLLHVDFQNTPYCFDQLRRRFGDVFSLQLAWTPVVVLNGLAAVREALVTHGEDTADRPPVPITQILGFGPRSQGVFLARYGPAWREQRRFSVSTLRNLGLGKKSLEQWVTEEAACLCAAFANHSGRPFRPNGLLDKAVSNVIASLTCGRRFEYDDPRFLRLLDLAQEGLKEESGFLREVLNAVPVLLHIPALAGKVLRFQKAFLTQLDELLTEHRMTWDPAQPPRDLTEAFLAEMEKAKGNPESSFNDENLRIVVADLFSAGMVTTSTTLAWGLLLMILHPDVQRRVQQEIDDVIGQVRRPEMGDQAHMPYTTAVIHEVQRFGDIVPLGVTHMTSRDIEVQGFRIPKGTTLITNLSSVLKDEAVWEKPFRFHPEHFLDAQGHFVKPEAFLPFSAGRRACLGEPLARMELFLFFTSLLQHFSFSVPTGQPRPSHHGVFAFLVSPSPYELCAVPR
T4 sequence (P33261 whole entry): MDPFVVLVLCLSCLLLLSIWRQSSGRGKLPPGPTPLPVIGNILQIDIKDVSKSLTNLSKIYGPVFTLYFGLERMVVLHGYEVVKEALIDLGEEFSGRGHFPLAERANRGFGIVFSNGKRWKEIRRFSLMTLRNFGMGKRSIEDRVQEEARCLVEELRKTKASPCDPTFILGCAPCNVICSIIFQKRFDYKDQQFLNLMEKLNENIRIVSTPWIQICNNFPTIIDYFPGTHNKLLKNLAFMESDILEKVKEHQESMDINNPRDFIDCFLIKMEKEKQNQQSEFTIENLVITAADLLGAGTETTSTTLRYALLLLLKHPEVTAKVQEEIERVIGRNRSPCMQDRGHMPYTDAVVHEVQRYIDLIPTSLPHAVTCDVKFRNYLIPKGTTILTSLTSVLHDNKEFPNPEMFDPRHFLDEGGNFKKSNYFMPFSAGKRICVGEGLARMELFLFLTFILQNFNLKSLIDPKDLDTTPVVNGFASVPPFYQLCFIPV
T3 sequence (P11712 whole entry): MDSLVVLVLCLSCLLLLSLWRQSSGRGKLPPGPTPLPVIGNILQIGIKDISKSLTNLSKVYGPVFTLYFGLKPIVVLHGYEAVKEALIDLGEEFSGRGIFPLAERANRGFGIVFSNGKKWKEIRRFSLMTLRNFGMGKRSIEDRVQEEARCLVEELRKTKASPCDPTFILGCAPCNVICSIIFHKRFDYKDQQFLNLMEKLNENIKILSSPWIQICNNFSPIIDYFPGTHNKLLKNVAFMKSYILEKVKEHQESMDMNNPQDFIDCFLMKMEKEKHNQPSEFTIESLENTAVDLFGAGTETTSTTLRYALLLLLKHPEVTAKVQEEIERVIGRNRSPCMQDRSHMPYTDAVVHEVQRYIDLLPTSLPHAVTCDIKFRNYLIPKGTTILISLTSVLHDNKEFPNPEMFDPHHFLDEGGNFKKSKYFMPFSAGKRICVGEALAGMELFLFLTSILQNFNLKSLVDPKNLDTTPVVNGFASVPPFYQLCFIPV

Nc1ccc(O)c(C(=O)O)c1 [5-ASA, 5-aminosalicylic acid]
Tmax (clinical [1]): 12 h | Change (reduction) of AUC0-∞ under fed conditions [2]: 46% | Reduction of mean Cmax under fed conditions [2]: 65% | AUC(0-inf) (clinical [3]; human, in vivo): 8500 ng·h/mL | AUCtau, mean (clinical [3]; human, in vivo): 2.2 µg·h/mL | Cmax, mean (clinical [3]; human, in vivo): 0.5 µg/mL | Tmax (clinical [3]; human, in vivo): 12 h | half-life (clinical [3]; human, in vivo, T1/2, mean): 570 min | half-life (clinical [3]; [24]): 570 min | Inhibition of CYP1A2 (CYP1A2 [4]): not shown to inhibit | Inhibition of CYP2D6 (CYP2D6 [5]): not shown to inhibit | Median Tmax [6]: 24 h | Inhibition of CYP2C9 (CYP2C9 [7]): not shown to inhibit | Binding to plasma proteins (human plasma proteins [8]): 43% | Inhibition of CYP2C19 (CYP2C19 [9]): not shown to inhibit

O=C(O)CCNC(=O)c1ccc(/N=N/c2ccc(O)c(C(=O)O)c2)cc1 [balsalazide disodium, (E)-5-[[-4-[[(2-carboxyethyl)amino]carbonyl]phenyl]azo]-2-hydroxybenzoic acid, disodium salt, dihydrate]
Genotoxicity, human lymphocyte chromosomal aberration test (human lymphocyte): not genotoxic | Genotoxicity, mouse micronucleus test (Mouse micronucleus test): not genotoxic | Genotoxicity, Ames test (Ames test): not genotoxic | Solubility in acid ([10]; acid): insoluble | Solubility in all other organic solvents ([10]; all other organic solvents): practically insoluble | Solubility in methanol and ethanol ([10]; methanol and ethanol): sparingly soluble | pH at which soluble ([10]; pH): at least 4.5 | Water solubility ([10]; water): highly water-soluble | Solubility in water and isotonic saline ([10]; water and isotonic saline): freely soluble | Genotoxicity, mouse lymphoma cell (L5178Y/TK+/−) forward mutation test [11]: not genotoxic | Effect on fertility and reproductive performance [12]: no effect on fertility and reproductive performance | Impaired fertility or harm to the fetus [12]: no evidence of impaired fertility or harm to the fetus | Tumorigenicity [13]: not tumorigenic | Genotoxicity, Chinese hamster lung cell (CH V79/HGPRT) forward mutation test [14]: genotoxic | Impaired fertility or harm to the fetus [15]: no evidence of impaired fertility or harm to the fetus

O=C(O)CCNC(=O)c1ccc(/N=N/c2ccc(O)c(C(=O)O)c2)cc1 [balsalazide]
Inhibition of CYP3A4/5 (CYP3A4/5 [16]): not shown to inhibit | Change (reduction) of AUC0-∞ under fed conditions [2]: No significant changes | Reduction of mean Cmax under fed conditions [2]: 44% | Tmax ([2]; fasted): 0.5 h | Tmax ([2]; with a high fat meal): 2 h | AUC(0-inf) (clinical [3]; human, in vivo): 1400 ng·h/mL | T1/2, mean (clinical [3]; human, in vivo): 1.9 h | Tmax (clinical [3]; human, in vivo): 0.5 h | AUC (clinical [3]; human, in vivo, AUCtau, mean): 1300 ng·h/mL | Cmax (clinical [3]; human, in vivo, Cmax, mean): 300 ng/mL | half-life (clinical [3]; [24]): 114 min | Inhibition of CYP1A2 (CYP1A2 [4]): not shown to inhibit | Inhibition of CYP2D6 (CYP2D6 [5]): not shown to inhibit | Inhibition of CYP2C9 (CYP2C9 [7]): not shown to inhibit | Inhibition of CYP2C19 (CYP2C19 [9]): not shown to inhibit | Binding to plasma proteins (human plasma proteins [17]): ≥ 99%

Nc1ccc(C(=O)NCCC(=O)O)cc1 [4-ABA, 4-aminobenzoyl-β-alanine]
Genotoxicity, human lymphocyte chromosomal aberration test (human lymphocyte): positive | Genotoxicity, Ames test (Ames test): not genotoxic | Inhibition of CYP3A4/5 (CYP3A4/5 [16]): not shown to inhibit | Absorption of the released carrier component ([18]; largely eliminated in the feces): poorly absorbed | Inhibition of CYP1A2 (CYP1A2 [4]): not shown to inhibit | Genotoxicity, mouse lymphoma cell (L5178Y/TK+/−) forward mutation test [11]: not genotoxic | Inhibition of CYP2D6 (CYP2D6 [5]): not shown to inhibit | Inhibition of CYP2C9 (CYP2C9 [7]): not shown to inhibit | Inhibition of CYP2C19 (CYP2C19 [9]): not shown to inhibit

CC(=O)Nc1ccc(O)c(C(=O)O)c1 [N-Ac-5-ASA, N-acetyl-5-aminosalyicylic acid]
Percent of the oral dose measured in the blood / systemically absorbed ([18]; oral dose): ~12% | Median Tmax ([2]; fasted): 12 h | Change (reduction) of AUC0-∞ under fed conditions [2]: 17% | Reduction of mean Cmax under fed conditions [2]: 48% | Median Tmax ([2]; with a high fat meal): 24 h | Inhibition of CYP3A4/5 (CYP3A4/5 [19]): not shown to inhibit | Terminal half-life (clinical [3]): 10.5 h | T1/2, mean (clinical [3]; repeated dose (Q12) 3.3 g as GIAZO): 7.2 h | AUCtau, mean (clinical [3]; [25]): 21 µg·h/mL | Cmax, mean (clinical [3]; [25]): 2.2 µg/mL | Tmax, median (clinical [3]; [25]): 10 h | Accumulation ratio based on AUC (clinical [3]; repeated doses of 3.3 g GIAZO every 12 hours, steady-state vs single dose): 3.6 | Median time of peak plasma concentration (Tmax) (clinical [3]; single dose 3.3 g GIAZO, 18 healthy subjects): 12 h | AUC0-∞, mean (clinical [3]; [26]): 33.5 µg·h/mL | AUCtau, mean (clinical [3]; [26]): 5.9 µg·h/mL | Cmax, mean (clinical [3]; [26]): 1.2 µg/mL | Tmax, median (clinical [3]; [26]): 12 h | T1/2, mean (clinical [3]; single dose 3.3 g as GIAZO, N = 17 where marked b): 10.4^b hour | Mean % of dose excreted in urine over 12 hours (clinical [3]; steady-state, 3.3 g GIAZO every 12 hours, healthy volunteers): 15.6% | Inhibition of CYP2C19 (CYP2C19 [20]): not shown to inhibit | Inhibition of CYP2C9 (CYP2C9 [21]): not shown to inhibit | Inhibition of CYP2D6 (CYP2D6 [22]): not shown to inhibit | Inhibition of CYP1A2 (CYP1A2 [23]): not shown to inhibit | Binding to plasma proteins (human plasma proteins [17]): 78%
